Assay results from article PMC11675580, “Supersaturated Gel Formulation (SGF) of Atorvastatin at a Maximum Dose of 80 mg with Enhanced Solubility, Dissolution, and Physical Stability” (Gels, 2024).

Assay: Drug release kinetics (first-order fit)
Assay type: physicochemical
Source text: The drug release data was fitted to kinetic models of first-order, and the coefficient of determination (r^2) was indicative of best-fit model to describe drug release kinetics.

CC(C)c1c(C(=O)Nc2ccccc2)c(-c2ccccc2)c(-c2ccc(F)cc2)n1CC[C@@H](O)C[C@@H](O)CC(=O)O [ATR, Atorvastatin calcium trihydrate]
Drug release rate constant (first-order rate constant, K1) (Water, release data until 30 min): 1.092 | Drug release rate constant (first-order rate constant, K1) (pH 1.2, release data until 30 min): 0.608 | Drug release rate constant (first-order rate constant, K1) (pH 4.0, release data until 30 min): 0.752 | Drug release rate constant (first-order rate constant, K1) (pH 6.8, release data until 30 min): 1.040
